Patent publication US20250326748A1, “COMPOUNDS AND METHODS FOR MODULATING SPLICING” (REMIX THERAPEUTICS INC., priority 2022, published 2025)
Counter-ions that a name gives are not always drawn.

What was measured:
Format in all cases: cell-based, human
HiBiT-tagged MYB protein = assay: HiBiT protein abundance assay, MYB (K562 HiBiT knock-in); settings: HiBiT knock-in cells, 24 hours
Experimental: (§1) Compounds described herein were used to screen for effects on quantitative protein abundance using a HiBit assay system (Promega). Quantitative protein abundance was determined by measuring the protein levels of HiBit-tagged protein targets expressed in cell culture via luminescence using the Nano-Glo HiBiT Lytic Detection System, which uses a split complementation assay format to reconstitute NanoBiT enzyme to generate a luminescent signal. A protein abundance assay was developed such that endogenous protein targets could be modified with the HiBiT peptide tag and their abundance could be assessed after compound treatment. Briefly, K562 cell lines containing a HiBiT-modification were treated with various compounds described herein (e.g., compounds of Formulas (I), or (II)). After treatment for 24 hours, the protein abundance of a specific target was determined by measuring luminescence.
(§2) • Promega Nano-Glo HiBiT Lytic Detection System (cat #N3030) • Corning 384-well TC-treated microplates (cat #3570)
(§3) Cells were maintained in IMDM with 10% FBS. Before the assay, cells were diluted with […] growth media (IMDM+1% FBS media) and were seeded in a 384-well plate at a density of 10000 cells/well (for each cell line listed in Table 6). Each compound was prepared as a 10-point 3-old serial dilution in DMSO with the top dose at a final concentration of 10 μM in the well. Unmodified K562 cells were added at the previously specified density with DMSO to serve as an assay baseline and positive control (PC) and DMSO only with the respective modified cell lines was added to the negative control (NC) columns. Final DMSO concentration was kept at or below 0.25%. Treated cell plates were placed in an incubator at 37° C. with 5% CO2 for 24 hours. After 24 hours, 25 μL of Complete HiBit Lytic reagent was added to each well at room temperature (e.g. one plate requiring 10 ml Lytic Buffer, 100 μL LgBiT Protein, 200 μL Lytic Substrate), shaken for 5 minutes at 600 RPM, then left to sit for 10 minutes for signal to stabilize before reading on a Spark Cyto plate reader (Tecan) with a 500 ms measurement time.
(§4) To determine compound effects on protein abundance of each target in Table 6, the percent response for each respective cell line was calculated at each compound concentration as follows:
(§5) For the normalized response at each concentration, a four-parameter logistical regression was fit to the data and the response was interpolated at the 50% value to determine a concentration for protein abundance at 50% (IC50) the untreated control.

Target C mRNA = assay: Splicing RT-qPCR panel, Target C canonical junction (CJ) mRNA; settings: Homo sapiens, read-out: Target C CJ (decrease in CJ mRNA levels, IC50)
Summary of the method: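 A673 cells (DMEM, 10% FBS) or K562 cells (IMDM, 10% FBS) treated 24 h at 37 °C with an 11-point 3-fold dilution, top 10 uM, DMSO ≤0.25%. Canonical-junction mRNA quantified in lysates by RT-qPCR, normalised to GAPDH, GUSB or PPIA and to DMSO (2^−ΔΔCt), then converted to % response.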

HiBiT-tagged HTT protein = assay: HiBiT protein abundance assay, HTT (K562 HiBiT knock-in); settings: HiBiT knock-in cells, 24 hours
Experimental: as §1, §2, §3, §4, §5

SMILES	IC50 (HiBiT-tagged MYB protein) [nM]	IC50 (Target C mRNA) [nM]	IC50 (HiBiT-tagged HTT protein) [nM]
CN[C@H]1CCN(c2cnc3nc(-c4cc(C)c5nc(C)cn5n4)ccc3c2)C1 [Compound 116]	< 100	100 to 1000	< 100
Cn1cc2cc(-c3cnc4nc(N5CCC(NC(C)(C)C)C5)ccc4c3)c(O)cc2n1 (stereo not drawn) [Compound 133, 5-{7-[3-(tert-butylamino)pyrrolidin-1-yl]-1,8-naphthyridin-3-yl}-2-methylindazol-6-ol]	1000 to 10000	> 10000	100 to 1000
CN[C@H]1CN(c2cnc3nc(-c4cc5cn(C)nc5c(C)c4O)ccc3c2)C[C@@H]1F (single isomer, unassigned) [Compound 131]	100 to 1000	1000 to 10000	1000 to 10000
CNC(=O)c1cc(-c2cc3cn(C)nc3c(C)c2O)nc2ncc(N3CCNCC3)cc12 [Compound 150, 2-(6-hydroxy-2,7-dimethylindazol-5-yl)-N-methyl-6-(piperazin-1-yl)-1,8-naphthyridine-4-carboxamide]	> 10000	> 10000	> 10000
Cc1c(O)c(-c2ccc3cc(N4CCC(NCC5CC5)C4)cnc3n2)cc2cn(C)nc12 (stereo in doubt) [Compound 119, 5-{6-[(3R)-3-[(cyclopropylmethyl)amino]pyrrolidin-1-yl]-1,8-naphthyridin-2-yl}-2,7-dimethylindazol-6-ol]	< 100	100 to 1000	< 100
CN[C@H]1CCN(c2cnc3nc(-c4cc5cn(C)nc5c(C)c4O)ncc3c2)C1 [Compound 120]	< 100	> 10000	100 to 1000
Cc1c(O)c(-c2cc(Cl)c3cc(N4CCNC(C)C4)cnc3n2)cc2cn(C)nc12 (stereo not drawn) [Compound 147]	100 to 1000	1000 to 10000	100 to 1000
CNC1CCN(c2cnc3nc(-c4cc5cn(C)nc5c(C)c4O)cc(Cl)c3c2)C1 (stereo not drawn) [Compound 142, 5-{4-chloro-6-[3-(methylamino)351pyrrolidine-1-yl]-1,8-naphthyridin-2-yl}-2,7-dimethylindazol-6-ol]	< 100	100 to 1000	< 100
CCN[C@@H]1CCN(c2cnc3nc(-c4cc5cn(C)nc5c(C)c4O)ccc3c2)C1 [Compound 124]	< 100	100 to 1000	< 100
Cc1c(O)c(-c2ccc3cc(N4CCC(NCC5CC5)C4)cnc3n2)cc2cn(C)nc12 (stereo not drawn) [Compound 105, 5-(6-{3-[(cyclopropylmethyl)amino]pyrrolidin-1-yl}-1,8-naphthyridin-2-yl)-2,7-dimethylindazol-6-ol]	< 100	1000 to 10000	< 100
Cc1cc(-c2cc3cn(C)nc3c(C)c2O)nc2ncc(N3CCNCC3)cc12 [Compound 151, 2,7-dimethyl-5-[4-methyl-6-(piperazin-1-yl)-1,8-naphthyridin-2-yl]indazol-6-ol]	< 100	1000 to 10000	100 to 1000
Cc1c(O)c(-c2ccc3cc(N4CCNCC4)cnc3n2)cc2cn(C)nc12 [Compound 137, 2,7-dimethyl-5-[6-(piperazin-1-yl)-1,8-naphthyridin-2-yl]indazol-6-ol]	< 100	100 to 1000	100 to 1000
CN[C@@H]1CN(c2cnc3nc(-c4cc5cn(C)nc5c(C)c4O)ccc3c2)C[C@@H]1C [Compound 128]	< 100	100 to 1000	100 to 1000
CN[C@@H]1CCN(c2cnc3nc(-c4cc5cn(C)nc5c(C)c4O)ncc3c2)C1 [Compound 107, 2,7-dimethyl-5-{6-[(3R)-3-(methylamino)pyrrolidin-1-yl]pyrido[2,3-d]pyrimidin-2-yl}indazol-6-ol hydrochloride]	< 100	100 to 1000	< 100

Now from value to compound:

IC50 (HiBiT-tagged MYB protein) [nM]	IC50 (Target C mRNA) [nM]	IC50 (HiBiT-tagged HTT protein) [nM]	SMILES
< 100	1000 to 10000	100 to 1000	Cc1cn2nc(-c3cc(Cl)c4cc(N5CCC(N(C)C)CC5)cnc4n3)cc(C)c2n1 [Compound 348]
100 to 1000	1000 to 10000	100 to 1000	Cc1c(O)c(-c2cc(Cl)c3cc(N(C)[C@H]4CCNC4)cnc3n2)cc2cn(C)nc12 [Compound 294]
< 100	100 to 1000	100 to 1000	Cc1cn2nc(-c3cc(Cl)c4cc(N5CCC(N6CCC6)CC5)cnc4n3)cc(C)c2n1 [Compound 349]
100 to 1000	> 10000	1000 to 10000	C[C@@H]1CN(c2cnc3nc(-c4cc5cn(C)nc5c(F)c4O)cc(C4CC4)c3c2)C[C@H](C)N1 [Compound 305, 5-{4-cyclopropyl-6-[(3R,5S)-3,5-dimethylpiperazin-1-yl]-1,8-naphthyridin-2-yl}-7-fluoro-2-methylindazol-6-ol]
100 to 1000	> 10000	1000 to 10000	Cc1c(O)c(-c2ccc3c(C(F)(F)F)c(N4CCNCC4)cnc3n2)cc2cn(C)nc12 [Compound 302, 2,7-dimethyl-5-[6-(piperazin-1-yl)-5-(trifluoromethyl)-1,8-naphthyridin-2-yl]indazol-6-ol]
100 to 1000	1000 to 10000	1000 to 10000	C[C@H]1CN(c2cnc3nc(-c4cc(F)c5nn(C)cc5c4)cc(Cl)c3c2)C[C@@H](C2CC2)N1 [Compound 288]
< 100	1000 to 10000	100 to 1000	Cc1c(O)c(-c2ccc3c(Cl)c(N4CCNCC4)cnc3n2)cc2cn(C)nc12 [Compound 278, 5-[5-chloro-6-(piperazin-1-yl)-1,8-naphthyridin-2-yl]-2,7-dimethylindazol-6-ol]
100 to 1000	1000 to 10000	1000 to 10000	CN(C)C1CCN(c2cnc3nc(-c4cc5cn(C)nc5cc4O)ccc3c2)CC1 [Compound 316]
100 to 1000	1000 to 10000	100 to 1000	C[C@@H]1CN(c2cnc3nc(-c4cc(F)c5nn(C)cc5c4)cc(Cl)c3c2)CCN1 [Compound 295, 4-chloro-2-(7-fluoro-2-methylindazol-5-yl)-6-[(3R)-3-methylpiperazin-1-yl]-1,8-naphthyridine]
< 100	1000 to 10000	100 to 1000	C[C@H]1CN(c2cnc3nc(-c4cc(F)c5nn(C)cc5c4)cc(Cl)c3c2)CCN1 [Compound 296]
< 100	< 100	< 100	CN[C@@H]1CCN(c2cnc3nc(-c4cc5cn(C)nc5c(C)c4O)cc(Cl)c3c2)C1 [Compound 286, 5-{4-chloro-6-[(3R)-3-(methylamino)pyrrolidin-1-yl]-1,8-naphthyridin-2-yl}-2,7-dimethylindazol-6-ol hydrochloride]
100 to 1000	> 10000	1000 to 10000	Cc1cn2cc(-c3ccc4cc(N5C[C@@H](C)N[C@@H](C)C5)cnc4n3)cc(F)c2n1 [Compound 350]
100 to 1000	1000 to 10000	100 to 1000	Cc1cn2nc(-c3cc(Cl)c4cc(N5C[C@@H](C)N[C@@H](C)C5)cnc4n3)cc(C)c2n1 [Compound 335, 4-chloro-2-{2,8-dimethylimidazo[1,2-b]478pyridazine-6-yl}-6-[(3R,5S)-3,5-dimethylpiperazin-1-yl]-1,8-naphthyridine]
< 100	1000 to 10000	100 to 1000	Cn1cc2cc(-c3cc(Cl)c4cc(N5CCNC6(CC6)C5)cnc4n3)c(O)c(F)c2n1 [Compound 274]
100 to 1000	100 to 1000	100 to 1000	Cn1cc2cc(-c3ccc4cc(N5CC[C@@H](NCC6CC6)C5)cnc4n3)c(O)cc2n1 [Compound 313]
< 100	1000 to 10000	100 to 1000	Cc1cn2nc(-c3ccc4c(Cl)c(N5C[C@H](C)N[C@@H](C)C5)cnc4n3)cc(C)c2n1 [Compound 393, 5-chloro-2-{2,8-dimethylimidazo[1,2-b]pyridazin-6-yl}-6-[(3S,5S)-3,5-dimethylpiperazin-1-yl]-1,8-naphthyridine]
< 100	1000 to 10000	100 to 1000	CCN[C@H]1CCN(c2cnc3nc(-c4cc5cn(C)nc5cc4O)cc(Cl)c3c2)C1 [Compound 318]
100 to 1000	1000 to 10000	100 to 1000	Cc1c(O)c(-c2cc(Cl)c3cc(N(C)[C@@H]4CCNC4)cnc3n2)cc2cn(C)nc12.Cl [Compound 293]
